Results reported in publication PMC2248166, “Quantitative peptide binding motifs for 19 human and mouse MHC class I molecules derived using positional scanning combinatorial peptide libraries” (Immunome Research, 2008).
Where a SMILES comes first, the peptide text is derived from it.

Biological target: HLA A*3201 (Homo sapiens, UniProt P04439, A270S/D101S/D185E/E176V/E277Q/F133L/G103R/G107R/G231S/H175R/I121M/I218V/I322F/K168Q/L105A/L300P/L318F/M331R/P208A/P217A/Q94H/R106L/R138Q/S129P/T104I/T323A/T345S/V100E/V321M/V358M)
Experiment: biochemical
Type: binding

SMILES	IC50 [nM]
CC[C@H](C)[C@H](NC(=O)[C@@H](NC(=O)[C@H](Cc1ccccc1)NC(=O)[C@H](Cc1ccccc1)NC(=O)[C@H](CC(C)C)NC(=O)[C@H](Cc1ccccc1)NC(=O)[C@H](CC(=O)O)NC(=O)[C@@H](NC(=O)[C@@H](N)CCCCN)[C@@H](C)CC)[C@@H](C)CC)C(=O)O [3102.0306] (H-KIDFLFFII-OH)	2
C[C@@H](O)[C@H](NC(=O)[C@H](CCCNC(=N)N)NC(=O)[C@H](CC(N)=O)NC(=O)[C@H](Cc1ccccc1)NC(=O)[C@@H](NC(=O)[C@@H](N)CCCNC(=N)N)[C@@H](C)O)C(=O)N[C@@H](Cc1c[nH]cn1)C(=O)N[C@@H](Cc1ccc(O)cc1)C(=O)N[C@@H](Cc1c[nH]c2ccccc12)C(=O)O [3102.0309] (H-RTFNRTHYW-OH)	0.24
CC[C@H](C)[C@H](NC(=O)[C@H](CO)NC(=O)[C@H](CCC(N)=O)NC(=O)[C@H](CCC(N)=O)NC(=O)[C@H](CC(C)C)NC(=O)[C@H](Cc1ccccc1)NC(=O)[C@H](CC(C)C)NC(=O)[C@@H](NC(=O)[C@@H](N)CCCCN)C(C)C)C(=O)O [3102.0312] (H-KVLFLQQSI-OH)	0.7
CC[C@H](C)[C@H](NC(=O)[C@@H](N)CO)C(=O)N[C@@H](Cc1ccc(O)cc1)C(=O)NCC(=O)N[C@@H](Cc1ccccc1)C(=O)NCC(=O)N[C@H](C(=O)N[C@H](C(=O)N[C@@H](Cc1ccccc1)C(=O)O)[C@@H](C)O)C(C)C [3102.0314] (H-SIYGFGVTF-OH)	0.11
CSCC[C@H](NC(=O)[C@H](CCCCN)NC(=O)[C@H](CC(N)=O)NC(=O)[C@H](CC(C)C)NC(=O)[C@@H](N)CCCCN)C(=O)N[C@H](C(=O)N[C@H](C(=O)N[C@@H](CCC(=O)O)C(=O)N[C@@H](CC(C)C)C(=O)O)C(C)C)[C@@H](C)O [3102.0316] (H-KLNKMTVEL-OH)	1.7
CC[C@H](C)[C@H](NC(=O)[C@@H](NC(=O)[C@@H](NC(=O)[C@H](Cc1ccccc1)NC(=O)[C@H](Cc1ccccc1)NC(=O)[C@@H](NC(=O)[C@H](CC(C)C)NC(=O)[C@@H](NC(=O)[C@@H](N)CO)[C@@H](C)O)[C@@H](C)CC)C(C)C)[C@@H](C)CC)C(=O)O [3102.0317] (H-STLIFFVII-OH)	18
CC(C)[C@H](NC(=O)CNC(=O)[C@H](Cc1ccc(O)cc1)NC(=O)[C@@H](NC(=O)[C@@H](N)CCCNC(=N)N)[C@@H](C)O)C(=O)N[C@@H](CC(N)=O)C(=O)N[C@@H](Cc1ccc(O)cc1)C(=O)N[C@H](C(=O)N[C@@H](Cc1ccccc1)C(=O)O)[C@@H](C)O [3102.0318] (H-RTYGVNYTF-OH)	0.26
CC[C@H](C)[C@H](NC(=O)[C@H](C)NC(=O)[C@H](CC(N)=O)NC(=O)[C@@H](NC(=O)[C@@H]1CCCN1C(=O)[C@H](CCC(=O)O)NC(=O)[C@@H](NC(=O)[C@H](CC(C)C)NC(=O)[C@@H](N)CCCCN)[C@@H](C)CC)C(C)C)C(=O)O [3102.0321] (H-KLIEPVNAI-OH)	11
CC[C@H](C)[C@H](NC(=O)[C@H](CCC(=O)O)NC(=O)[C@H](Cc1ccccc1)NC(=O)[C@H](CO)NC(=O)[C@@H](N)CCCNC(=N)N)C(=O)N[C@H](C(=O)N[C@@H](CC(N)=O)C(=O)N[C@H](C(=O)N[C@@H](CC(C)C)C(=O)O)C(C)C)[C@@H](C)CC [3102.0322] (H-RSFEIINVL-OH)	2.9
CC[C@H](C)[C@H](NC(=O)[C@H](CCCNC(=N)N)NC(=O)[C@H](CCC(N)=O)NC(=O)[C@H](C)NC(=O)[C@@H](NC(=O)[C@H](CC(N)=O)NC(=O)[C@H](Cc1ccccc1)NC(=O)[C@H](CC(C)C)NC(=O)[C@@H](N)CCCCN)[C@@H](C)CC)C(=O)O [3102.0323] (H-KLFNIAQRI-OH)	1.6
CC[C@H](C)[C@H](NC(=O)[C@H](CC(N)=O)NC(=O)[C@H](CC(C)C)NC(=O)[C@@H](NC(=O)[C@@H](N)C(C)C)[C@@H](C)O)C(=O)N[C@@H](CO)C(=O)N[C@@H](CO)C(=O)N[C@@H](CCCCN)C(=O)N[C@@H](Cc1ccccc1)C(=O)O [3102.0324] (H-VTLNISSKF-OH)	11
CC[C@H](C)[C@H](N)C(=O)N[C@H](C(=O)N[C@@H](CC(N)=O)C(=O)N[C@@H](CCCCN)C(=O)N[C@@H](Cc1ccccc1)C(=O)N[C@@H](Cc1ccccc1)C(=O)N[C@@H](CCC(=O)O)C(=O)N[C@H](C(=O)N[C@H](C(=O)O)[C@@H](C)CC)C(C)C)[C@@H](C)CC [3102.0325] (H-IINKFFEVI-OH)	11
CC[C@H](C)[C@H](NC(=O)[C@H](CC(C)C)NC(=O)[C@H](C)NC(=O)[C@@H](NC(=O)[C@H](C)N)[C@@H](C)O)C(=O)N[C@@H](CC(C)C)C(=O)N[C@H](C(=O)N[C@@H](CO)C(=O)N[C@@H](Cc1ccccc1)C(=O)O)C(C)C [3102.0327] (H-ATALILVSF-OH)	1.4
CC[C@H](C)[C@H](NC(=O)[C@@H](NC(=O)[C@H](CC(C)C)NC(=O)[C@H](CC(C)C)NC(=O)[C@H](CC(C)C)NC(=O)[C@H](CO)NC(=O)[C@H](Cc1ccccc1)NC(=O)[C@H](CC(C)C)NC(=O)[C@@H](N)CO)C(C)C)C(=O)O [3102.0328] (H-SLFSLLLVI-OH)	28
CC[C@H](C)[C@H](NC(=O)[C@@H](NC(=O)[C@@H](NC(=O)[C@H](Cc1c[nH]cn1)NC(=O)[C@H](CC(C)C)NC(=O)[C@H](CCSC)NC(=O)[C@H](CC(N)=O)NC(=O)[C@H](CCC(N)=O)NC(=O)[C@@H](N)CCCCN)C(C)C)[C@@H](C)CC)C(=O)O [3102.0329] (H-KQNMLHVII-OH)	2.1
CC[C@H](C)[C@H](NC(=O)[C@H](CO)NC(=O)[C@@H](NC(=O)[C@H](C)NC(=O)[C@@H](NC(=O)[C@H](CC(C)C)NC(=O)[C@H](CC(C)C)NC(=O)[C@@H](NC(=O)[C@@H](N)CCCCN)[C@@H](C)CC)C(C)C)C(C)C)C(=O)O [3102.0330] (H-KILLVAVSI-OH)	1.5
CC[C@H](C)[C@H](NC(=O)[C@H](CC(C)C)NC(=O)[C@H](CC(C)C)NC(=O)[C@@H](NC(=O)[C@H](Cc1ccccc1)NC(=O)[C@H](CO)NC(=O)[C@H](CC(N)=O)NC(=O)[C@@H](NC(=O)[C@@H](N)CO)C(C)C)[C@@H](C)O)C(=O)O [3102.0331] (H-SVNSFTLLI-OH)	2.6
CC(C)C[C@H](NC(=O)[C@H](Cc1ccccc1)NC(=O)[C@H](CO)NC(=O)[C@H](CC(C)C)NC(=O)[C@@H](N)CCCCN)C(=O)N[C@@H](CO)C(=O)N[C@@H](CCCNC(=N)N)C(=O)N[C@H](C(=O)N[C@@H](Cc1ccccc1)C(=O)O)C(C)C [3102.0332] (H-KLSFLSRVF-OH)	2.2
CC[C@H](C)[C@H](N)C(=O)N[C@H](C(=O)N[C@@H](CO)C(=O)N[C@H](C(=O)N[C@H](C(=O)N[C@@H](CO)C(=O)N[C@@H](CC(C)C)C(=O)N[C@H](C(=O)N[C@H](C(=O)O)[C@@H](C)CC)C(C)C)[C@@H](C)CC)C(C)C)[C@@H](C)CC [3102.0334] (H-IISVISLVI-OH)	47
CC[C@H](C)[C@H](NC(=O)[C@H](CCCCN)NC(=O)[C@H](CCC(N)=O)NC(=O)[C@H](C)NC(=O)[C@@H](NC(=O)CNC(=O)[C@H](Cc1ccc(O)cc1)NC(=O)[C@H](CC(C)C)NC(=O)[C@@H](N)CCSC)[C@@H](C)CC)C(=O)O [3102.0335] (H-MLYGIAQKI-OH)	12
CC[C@H](C)[C@H](NC(=O)[C@@H](NC(=O)[C@@H](NC(=O)[C@@H](NC(=O)[C@@H](NC(=O)[C@@H](NC(=O)[C@H](CC(N)=O)NC(=O)[C@@H](NC(=O)[C@@H](N)C(C)C)[C@@H](C)O)C(C)C)[C@@H](C)CC)[C@@H](C)CC)[C@@H](C)CC)C(C)C)C(=O)O [3102.0336] (H-VTNVIIIVI-OH)	14
CC[C@H](C)[C@H](NC(=O)[C@@H](NC(=O)[C@H](CC(C)C)NC(=O)[C@@H](NC(=O)[C@H](CCCNC(=N)N)NC(=O)[C@H](CC(N)=O)NC(=O)[C@@H](NC(=O)[C@@H](NC(=O)CN)[C@@H](C)O)[C@@H](C)CC)[C@@H](C)CC)C(C)C)C(=O)O [3102.0337] (H-GTINRILVI-OH)	15
CC[C@H](C)[C@H](N)C(=O)N[C@H](C(=O)N[C@@H](CC(C)C)C(=O)N[C@@H](Cc1c[nH]cn1)C(=O)N[C@@H](CC(C)C)C(=O)N[C@@H](C)C(=O)N[C@@H](CS)C(=O)NCC(=O)N[C@@H](Cc1ccccc1)C(=O)O)[C@@H](C)O [3102.0338] (H-ITLHLACGF-OH)	1.4
CSCC[C@H](N)C(=O)N[C@H](C(=O)N[C@@H](CS)C(=O)NCC(=O)N[C@@H](CCC(N)=O)C(=O)N1CCC[C@H]1C(=O)N[C@@H](CC(C)C)C(=O)N[C@@H](CO)C(=O)N[C@@H](CC(C)C)C(=O)O)[C@@H](C)O [3102.0339] (H-MTCGQPLSL-OH)	5.6
CC[C@H](C)[C@H](NC(=O)[C@H](CC(C)C)NC(=O)[C@H](Cc1c[nH]cn1)NC(=O)[C@H](Cc1ccccc1)NC(=O)[C@H](CC(N)=O)NC(=O)[C@H](Cc1ccccc1)NC(=O)[C@@H](NC(=O)[C@@H](NC(=O)[C@@H](N)CCCNC(=N)N)[C@@H](C)O)[C@@H](C)CC)C(=O)O [3102.0342] (H-RTIFNFHLI-OH)	2.1
CC(C)C[C@H](NC(=O)[C@H](CC(N)=O)NC(=O)[C@H](Cc1ccc(O)cc1)NC(=O)[C@H](Cc1ccc(O)cc1)NC(=O)[C@@H](NC(=O)[C@H](Cc1ccc(O)cc1)NC(=O)[C@H](Cc1ccccc1)NC(=O)[C@H](CC(C)C)NC(=O)[C@@H](N)CCCCN)C(C)C)C(=O)O [3102.0343] (H-KLFYVYYNL-OH)	0.34
CC[C@H](C)[C@H](NC(=O)[C@H](CC(N)=O)NC(=O)[C@@H](NC(=O)[C@@H](NC(=O)[C@H](Cc1ccccc1)NC(=O)[C@@H](NC(=O)[C@H](C)NC(=O)[C@H](CC(C)C)NC(=O)[C@H](C)N)[C@@H](C)O)[C@@H](C)O)C(C)C)C(=O)O [3102.0344] (H-ALATFTVNI-OH)	6.1
CC[C@H](C)[C@H](NC(=O)[C@@H](NC(=O)[C@H](Cc1ccc(O)cc1)NC(=O)[C@H](CO)NC(=O)[C@@H](N)CCCCN)[C@@H](C)O)C(=O)N[C@@H](CCCNC(=N)N)C(=O)N[C@H](C(=O)N[C@@H](Cc1ccccc1)C(=O)N[C@@H](Cc1ccccc1)C(=O)O)C(C)C [3102.0345] (H-KSYTIRVFF-OH)	1.1
CC[C@H](C)[C@H](N)C(=O)N[C@H](C(=O)N[C@@H](Cc1ccccc1)C(=O)N[C@@H](CC(=O)O)C(=O)N[C@H](C(=O)N[C@@H](Cc1ccc(O)cc1)C(=O)N[C@@H](Cc1ccccc1)C(=O)N[C@@H](C)C(=O)N[C@H](C(=O)O)[C@@H](C)CC)[C@@H](C)CC)[C@@H](C)CC [3102.0346] (H-IIFDIYFAI-OH)	0.93
